Measurements published in patent US20170008888A1 (KYORIN PHARMACEUTICAL CO., LTD., priority 2014, published 2017).

What was measured:
[1] = biological target: T1, BRD4 bromodomain domain I [BRD4(1)] (Homo sapiens, UniProt O60885); experiment: BRD4 bromodomain domain 1 inhibition assay (TR-FRET); format: binding; conditions: for inhibition at 10 µM: screening concentration 10 μM
T1 construct: BRD4 bromodomain domain I [BRD4(1)]; purchased Cayman Chemicals
Description: The inhibitory activity of test compounds on the bromodomain, BRD4 bromodomain domain I [BRD4(1)], were determined via TR-FRET after a slight modification of the manufacturer's protocol (Cayman Chemicals, Ann Arbor, Mich.). Briefly, compounds were diluted to a 20× ([…]) concentration in DMSO. 100 nL of 20× compounds were then dry stamped into triplicate wells of black, low volume 384 well plates (Aurora Biotechnologies, Carlsbad, Calif.) using the Mosquito liquid handler (TPP Labtech, Melbourn, UK). 20× compounds were then diluted to a 4× (40 μM) concentration in Assay Buffer to result in 2% DMSO content. […] JQ1 at 10 μM or 0.5% DMSO final concentrations were used as the positive and negative controls, respectively, to set the assay window. The fluorescence was read in a time-resolved format on the Biotec Synergy 2 plate reader by exciting the signal at 340 nm and reading emissions at 620 and 670, using a 100 μs delay and 200 μs read window. […] Briefly, TR-FRET ratio values were normalized to the average TR-FRET ratio value given by 10 μM JQ1. […]

ERK5 = biological target: T2, ERK5 (Homo sapiens, UniProt Q13164); experiment: Probe-based (AX9989 acyl phosphate ATP probe) kinase profiling in Jurkat lysate: ERK5; format: binding; conditions: for IC50: calculated from percent inhibition of AX9989 labeling and the screening concentration, Jurkat lysate; for inhibition at 1 µM: screening concentration 1.0 μM; for inhibition at 1 µM / inhibition at 0.1 µM: read-out: Kinase inhibition % at indicated screening concentration: ERK5; for inhibition at 0.1 µM: screening concentration 0.1 μM
T2 construct: screened for activity against several kinases in Jurkat cells; endogenous in cells; host or cells: Jurkat cell lysate
T2 sequence (Q13164 whole entry): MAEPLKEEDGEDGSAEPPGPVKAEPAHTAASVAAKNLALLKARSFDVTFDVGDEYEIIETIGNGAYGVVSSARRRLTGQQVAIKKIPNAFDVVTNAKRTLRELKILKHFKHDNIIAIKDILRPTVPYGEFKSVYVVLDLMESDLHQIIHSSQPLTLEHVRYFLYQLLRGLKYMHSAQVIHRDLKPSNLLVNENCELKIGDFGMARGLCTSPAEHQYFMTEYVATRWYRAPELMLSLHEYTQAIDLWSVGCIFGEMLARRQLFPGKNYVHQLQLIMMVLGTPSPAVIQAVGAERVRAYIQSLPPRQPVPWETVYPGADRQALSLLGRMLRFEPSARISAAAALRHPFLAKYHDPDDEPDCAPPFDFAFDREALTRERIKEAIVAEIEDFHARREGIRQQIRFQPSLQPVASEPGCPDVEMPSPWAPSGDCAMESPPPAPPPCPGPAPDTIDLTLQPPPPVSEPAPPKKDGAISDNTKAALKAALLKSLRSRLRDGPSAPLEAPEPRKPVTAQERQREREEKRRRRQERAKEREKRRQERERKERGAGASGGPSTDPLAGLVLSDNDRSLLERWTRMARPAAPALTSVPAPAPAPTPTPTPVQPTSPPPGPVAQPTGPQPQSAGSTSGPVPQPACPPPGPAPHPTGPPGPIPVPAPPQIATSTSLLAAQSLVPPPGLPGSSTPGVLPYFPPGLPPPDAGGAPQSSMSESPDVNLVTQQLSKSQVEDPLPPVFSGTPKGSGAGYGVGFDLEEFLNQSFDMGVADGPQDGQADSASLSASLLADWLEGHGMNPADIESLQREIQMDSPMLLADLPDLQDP
In short: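 ERK5 IC50 values came from percent inhibition at the screening concentration, measured as loss of LC/MS signal of probe-labelled active-site peptides. Compound was added for 15 min at room temperature to Jurkat lysate (5 mg/ml, 20 mM MnCl2) before labelling with AX9989 ATP acyl phosphate probe at 5 μM.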

AurB or AurC = experiment: Probe-based (AX9989) kinase profiling in Jurkat lysate: AurB or AurC; format: binding
In short: (§1)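 Percent inhibition was derived from reduced LC/MS fragment intensities of probe-labeled peptides relative to compound-free controls. Before labeling with 5 μM AX9989, Mn2+-supplemented (20 mM) Jurkat lysate was exposed to compound for 15 min at room temperature.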

AurA = biological target: T3, AurA (Homo sapiens, UniProt O14965); experiment: Probe-based (AX9989) kinase profiling in Jurkat lysate: AurA; format: binding; conditions: read-out: Kinase inhibition % at indicated screening concentration: AurA; for inhibition at 1 µM: screening concentration 1.0 μM; for inhibition at 0.1 µM: screening concentration 0.1 μM
T3 construct: screened for activity against several kinases in Jurkat cells; endogenous in cells; host or cells: Jurkat cell lysate
T3 sequence (O14965 1-403): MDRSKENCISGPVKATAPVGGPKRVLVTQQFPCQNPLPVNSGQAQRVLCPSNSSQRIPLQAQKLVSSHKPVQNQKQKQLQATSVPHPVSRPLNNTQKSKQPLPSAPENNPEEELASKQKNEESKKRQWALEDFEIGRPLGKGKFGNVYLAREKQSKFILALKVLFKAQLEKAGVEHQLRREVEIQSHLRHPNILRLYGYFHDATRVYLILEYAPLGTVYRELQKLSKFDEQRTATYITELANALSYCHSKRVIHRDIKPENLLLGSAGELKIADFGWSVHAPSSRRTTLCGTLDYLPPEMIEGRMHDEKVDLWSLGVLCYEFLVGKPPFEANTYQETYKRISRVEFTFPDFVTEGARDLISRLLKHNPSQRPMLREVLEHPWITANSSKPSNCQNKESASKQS
In short: as §1

AMPKa1 or AMPKa2 = experiment: Probe-based (AX9989) kinase profiling in Jurkat lysate: AMPKa1 or AMPKa2; format: binding
In short: as §1

TAO2 = biological target: T4, TAO2 (Homo sapiens, UniProt Q9UL54); experiment: Probe-based (AX9989) kinase profiling in Jurkat lysate: TAO2; format: binding; conditions: read-out: Kinase inhibition % at indicated screening concentration: TAO2; for inhibition at 1 µM: screening concentration 1.0 μM; for inhibition at 0.1 µM: screening concentration 0.1 μM
T4 construct: screened for activity against several kinases in Jurkat cells; endogenous in cells; host or cells: Jurkat cell lysate
T4 sequence (Q9UL54 1-1235): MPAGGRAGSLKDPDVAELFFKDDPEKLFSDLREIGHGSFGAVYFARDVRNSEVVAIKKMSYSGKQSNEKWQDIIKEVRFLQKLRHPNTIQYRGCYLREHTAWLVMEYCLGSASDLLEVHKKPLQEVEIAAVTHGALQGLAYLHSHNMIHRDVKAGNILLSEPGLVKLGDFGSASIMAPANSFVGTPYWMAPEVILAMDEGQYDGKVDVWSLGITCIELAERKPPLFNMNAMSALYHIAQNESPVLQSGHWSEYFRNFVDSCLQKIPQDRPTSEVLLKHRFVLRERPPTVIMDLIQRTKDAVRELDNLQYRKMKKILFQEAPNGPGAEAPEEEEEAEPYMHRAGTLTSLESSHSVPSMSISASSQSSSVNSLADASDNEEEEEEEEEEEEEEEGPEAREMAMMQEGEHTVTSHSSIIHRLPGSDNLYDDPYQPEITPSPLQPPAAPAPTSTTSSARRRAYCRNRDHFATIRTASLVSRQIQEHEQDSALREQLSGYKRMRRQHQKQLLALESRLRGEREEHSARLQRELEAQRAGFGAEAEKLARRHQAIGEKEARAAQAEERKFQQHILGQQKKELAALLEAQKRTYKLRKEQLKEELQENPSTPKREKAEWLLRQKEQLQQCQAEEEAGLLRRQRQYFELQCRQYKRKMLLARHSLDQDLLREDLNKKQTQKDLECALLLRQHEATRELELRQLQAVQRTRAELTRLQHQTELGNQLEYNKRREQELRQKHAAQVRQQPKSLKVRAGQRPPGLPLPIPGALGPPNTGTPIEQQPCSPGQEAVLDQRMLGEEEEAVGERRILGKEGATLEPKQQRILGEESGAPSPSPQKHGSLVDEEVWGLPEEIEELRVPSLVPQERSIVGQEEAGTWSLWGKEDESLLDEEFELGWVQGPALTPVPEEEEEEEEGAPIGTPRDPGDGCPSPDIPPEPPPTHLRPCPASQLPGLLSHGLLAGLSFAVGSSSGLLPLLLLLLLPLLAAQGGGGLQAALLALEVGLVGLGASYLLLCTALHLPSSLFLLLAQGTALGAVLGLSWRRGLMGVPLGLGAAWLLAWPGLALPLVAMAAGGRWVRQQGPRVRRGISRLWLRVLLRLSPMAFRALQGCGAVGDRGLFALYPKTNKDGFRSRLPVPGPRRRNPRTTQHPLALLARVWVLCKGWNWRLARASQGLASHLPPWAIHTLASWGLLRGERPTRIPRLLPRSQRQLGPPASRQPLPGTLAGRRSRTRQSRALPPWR
In short: as §1

ABL or ARG = experiment: Probe-based (AX9989) kinase profiling in Jurkat lysate: ABL or ARG; format: binding
In short: as §1

ACK = biological target: T5, ACK (Homo sapiens, UniProt Q07912); experiment: Probe-based (AX9989) kinase profiling in Jurkat lysate: ACK; format: binding; conditions: read-out: Kinase inhibition % at indicated screening concentration: ACK; for inhibition at 1 µM: screening concentration 1.0 μM; for inhibition at 0.1 µM: screening concentration 0.1 μM
T5 construct: screened for activity against several kinases in Jurkat cells; endogenous in cells; host or cells: Jurkat cell lysate
T5 sequence (Q07912 whole entry): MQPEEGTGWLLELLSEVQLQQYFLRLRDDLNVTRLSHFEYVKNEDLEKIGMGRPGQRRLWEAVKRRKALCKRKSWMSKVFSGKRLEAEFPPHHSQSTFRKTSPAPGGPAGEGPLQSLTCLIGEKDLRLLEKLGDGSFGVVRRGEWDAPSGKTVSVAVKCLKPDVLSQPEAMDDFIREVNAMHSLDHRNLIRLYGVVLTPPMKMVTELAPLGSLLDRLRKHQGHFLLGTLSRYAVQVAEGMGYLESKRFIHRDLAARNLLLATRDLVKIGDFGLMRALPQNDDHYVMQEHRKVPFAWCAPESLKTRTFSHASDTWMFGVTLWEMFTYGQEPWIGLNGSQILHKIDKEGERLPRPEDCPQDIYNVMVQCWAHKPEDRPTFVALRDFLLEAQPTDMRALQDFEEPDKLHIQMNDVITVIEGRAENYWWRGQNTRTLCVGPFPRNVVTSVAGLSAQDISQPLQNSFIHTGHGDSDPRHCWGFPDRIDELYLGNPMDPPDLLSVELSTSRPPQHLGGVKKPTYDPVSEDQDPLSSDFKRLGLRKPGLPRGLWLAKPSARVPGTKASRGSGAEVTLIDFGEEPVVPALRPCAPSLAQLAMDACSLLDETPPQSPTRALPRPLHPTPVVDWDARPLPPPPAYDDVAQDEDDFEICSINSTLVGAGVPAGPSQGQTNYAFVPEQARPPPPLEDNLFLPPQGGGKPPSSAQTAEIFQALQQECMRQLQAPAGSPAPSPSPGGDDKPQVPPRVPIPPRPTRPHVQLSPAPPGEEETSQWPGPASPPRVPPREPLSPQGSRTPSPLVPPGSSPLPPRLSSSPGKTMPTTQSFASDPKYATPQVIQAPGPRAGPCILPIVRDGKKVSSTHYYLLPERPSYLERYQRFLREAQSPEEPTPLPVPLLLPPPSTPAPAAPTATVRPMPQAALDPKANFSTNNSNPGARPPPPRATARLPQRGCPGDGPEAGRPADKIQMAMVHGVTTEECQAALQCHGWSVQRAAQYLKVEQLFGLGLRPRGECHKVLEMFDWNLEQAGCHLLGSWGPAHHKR
In short: as §1

JAK1 = biological target: T6, JAK1 (Homo sapiens, UniProt P23458); experiment: Probe-based (AX9989) kinase profiling in Jurkat lysate: JAK1; format: binding; conditions: read-out: Kinase inhibition % at indicated screening concentration: JAK1; for inhibition at 1 µM: screening concentration 1.0 μM; for inhibition at 0.1 µM: screening concentration 0.1 μM
T6 construct: screened for activity against several kinases in Jurkat cells; endogenous in cells; host or cells: Jurkat cell lysate
T6 sequence (P23458 whole entry): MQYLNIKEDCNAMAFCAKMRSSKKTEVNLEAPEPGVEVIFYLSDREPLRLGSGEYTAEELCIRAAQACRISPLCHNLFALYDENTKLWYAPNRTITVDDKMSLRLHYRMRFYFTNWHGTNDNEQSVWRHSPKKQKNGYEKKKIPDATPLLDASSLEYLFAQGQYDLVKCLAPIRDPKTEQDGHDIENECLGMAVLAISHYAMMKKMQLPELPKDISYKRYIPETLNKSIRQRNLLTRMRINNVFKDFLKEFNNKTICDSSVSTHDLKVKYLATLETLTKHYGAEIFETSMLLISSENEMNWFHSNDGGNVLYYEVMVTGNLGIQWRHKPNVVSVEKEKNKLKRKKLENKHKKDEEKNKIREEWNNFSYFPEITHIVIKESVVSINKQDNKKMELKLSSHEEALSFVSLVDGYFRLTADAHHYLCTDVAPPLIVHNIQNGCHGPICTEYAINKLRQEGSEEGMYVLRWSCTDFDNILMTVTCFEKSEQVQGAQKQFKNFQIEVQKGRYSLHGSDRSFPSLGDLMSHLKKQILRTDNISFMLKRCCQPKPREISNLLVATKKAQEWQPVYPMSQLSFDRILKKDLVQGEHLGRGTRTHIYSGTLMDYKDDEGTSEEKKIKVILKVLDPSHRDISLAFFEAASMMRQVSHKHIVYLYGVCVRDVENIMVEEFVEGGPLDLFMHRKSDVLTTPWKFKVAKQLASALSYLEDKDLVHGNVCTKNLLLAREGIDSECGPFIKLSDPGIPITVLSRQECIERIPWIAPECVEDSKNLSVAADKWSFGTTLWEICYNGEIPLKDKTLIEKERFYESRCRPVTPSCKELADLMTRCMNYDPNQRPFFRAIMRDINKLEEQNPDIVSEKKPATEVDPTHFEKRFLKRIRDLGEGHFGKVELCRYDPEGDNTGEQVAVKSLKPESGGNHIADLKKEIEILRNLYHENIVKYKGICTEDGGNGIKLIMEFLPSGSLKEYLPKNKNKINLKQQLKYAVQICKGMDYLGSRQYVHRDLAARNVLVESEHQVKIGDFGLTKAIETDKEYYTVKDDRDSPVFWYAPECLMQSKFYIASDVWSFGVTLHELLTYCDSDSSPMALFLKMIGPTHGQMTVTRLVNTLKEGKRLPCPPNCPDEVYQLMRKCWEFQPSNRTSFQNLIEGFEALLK
In short: as §1

human PBMCs = experiment: Human PBMC TNF-α response to endotoxin (ELISA); format: cell-based; conditions: 0.1 μg/ml LPS 16 h, read-out: EC50 for the inhibition of the human PBMC TNF-α response to endotoxin, ave. ± S.D.
In short: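 PBMCs at 2e6 cells/ml in RPMI 1640 with 10% charcoal-dextran-treated FBS were pre-treated 1 h at 37 °C with compound (4-point 1:5 dilution from 10 μM). Stimulation with 0.1 μg/ml E. coli 0111:B4 LPS for 16 h; TNF-α measured by ELISA (A450) in 25-fold diluted supernatant.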

Row | Compound | inhibition at 10 µM [1] | IC50 (ERK5) | inhibition at 1 µM (ERK5) | Kinase inhibition % at indicated screening concentration: AurB or AurC (AurB or AurC; screening concentration 1.0 μM) | inhibition at 1 µM (AurA) | Kinase inhibition % at indicated screening concentration: AMPKa1 or AMPKa2 (AMPKa1 or AMPKa2; screening concentration 1.0 μM) | inhibition at 1 µM (TAO2) | Kinase inhibition % at indicated screening concentration: ABL or ARG (ABL or ARG; screening concentration 1.0 μM) | inhibition at 1 µM (ACK) | inhibition at 1 µM (JAK1) | further results
1 | CCOc1cc(C(=O)NCCN(C)C)ccc1Nc1cc2c(cn1)N(C)C(=O)c1ccccc1N2C [Compound 1] | 70 to 85% | 101 to 500 nM | 75 to 90% | – | – | – | – | – | – | – | –
2 | CCOc1cc(C(=O)NC2CC2)ccc1Nc1cc2c(cn1)N(C)C(=O)c1ccccc1N2C [Compound 2] | < 70% | > 500 nM | ≤ 35% | – | – | – | – | – | – | – | –
3 | CCOc1cc(C(=O)Nc2ccncc2)ccc1Nc1cc2c(cn1)N(C)C(=O)c1ccccc1N2C [Compound 7] | < 70% | > 500 nM | 35 to 50% | E (E is ≦35%) | ≤ 35% | E (E is ≦35%) | ≤ 35% | E (E is ≦35%) | ≤ 35% | ≤ 35% | –
4 | COc1c(Nc2cc3c(cn2)N(C)C(=O)c2ccccc2N3C)cccc1C(=O)O [Compound 9] | < 70% | > 500 nM | ≤ 35% | E (E is ≦35%) | ≤ 35% | E (E is ≦35%) | ≤ 35% | E (E is ≦35%) | ≤ 35% | ≤ 35% | –
5 | CCOc1cc(C(=O)N2CCC(NC3CC3)C2)ccc1Nc1cc2c(cn1)N(C)C(=O)c1ccccc1N2C (stereo not drawn) [Compound 20] | 70 to 85% | ≤ 50 nM | – | – | – | – | – | – | – | – | Kinase inhibition % at indicated screening concentration: AurB or AurC (AurB or AurC; screening concentration 0.1 μM): E (E is ≦35%); inhibition at 0.1 µM (AurA): ≤ 35%; Kinase inhibition % at indicated screening concentration: AMPKa1 or AMPKa2 (AMPKa1 or AMPKa2; screening concentration 0.1 μM): E (E is ≦35%); inhibition at 0.1 µM (TAO2): ≤ 35%; inhibition at 0.1 µM (ERK5): 75 to 90%; Kinase inhibition % at indicated screening concentration: ABL or ARG (ABL or ARG; screening concentration 0.1 μM): E (E is ≦35%); inhibition at 0.1 µM (ACK): ≤ 35%; inhibition at 0.1 µM (JAK1): ≤ 35%
6 | CN1C(=O)c2ccccc2N(C)c2cc(NC3CCC(C(=O)O)CC3)ncc21 (stereo not drawn) [Compound 23] | < 70% | > 500 nM | 35 to 50% | E (E is ≦35%) | ≤ 35% | E (E is ≦35%) | ≤ 35% | E (E is ≦35%) | ≤ 35% | ≤ 35% | –
7 | CCOc1cc(C(=O)N2CC[C@@H](NC)C2)ccc1Nc1cc2c(cn1)N(C)C(=O)c1ccccc1N2C [Compound 26] | > 85% | ≤ 50 nM | – | – | – | – | – | – | – | – | Kinase inhibition % at indicated screening concentration: AurB or AurC (AurB or AurC; screening concentration 0.1 μM): E (E is ≦35%); inhibition at 0.1 µM (AurA): ≤ 35%; Kinase inhibition % at indicated screening concentration: AMPKa1 or AMPKa2 (AMPKa1 or AMPKa2; screening concentration 0.1 μM): E (E is ≦35%); inhibition at 0.1 µM (TAO2): ≤ 35%; inhibition at 0.1 µM (ERK5): 75 to 90%; Kinase inhibition % at indicated screening concentration: ABL or ARG (ABL or ARG; screening concentration 0.1 μM): E (E is ≦35%); inhibition at 0.1 µM (ACK): ≤ 35%; inhibition at 0.1 µM (JAK1): ≤ 35%
8 | CCOc1cc(C(=O)N2CC[C@H](NC3CCN(C)CC3)C2)ccc1Nc1cc2c(cn1)N(C)C(=O)c1ccccc1N2C [Compound T61] | > 85% | – | – | – | – | – | – | – | – | – | EC50 (human PBMCs): 420 nM
9 | CN1C(=O)c2ccccc2S(=O)(=O)c2cc(N[C@H]3CC[C@H](O)CC3)ncc21 [Compound T127] | – | – | – | – | – | – | – | – | – | – | IC50 [1]: > 5000 nM; EC50 (human PBMCs): 4600 nM
